Experimental data as given in patent publication US20240115711A1, “Novel Bifunctional Molecules For Targeted Protein Degradation” (Amphista Therapeutics Limited, priority 2020, published 2024).
Like-named read-outs stand apart in the source and are kept apart here.

How the values were obtained:
tumor cell lines [1] = settings: up to 94 tumor cell lines, from Ottis et al, identical assay conditions, cited from earlier work; for # tumor cell lines Low sensitivity/Resistant: degrader GI50 < inhibitor; for # tumor cell lines Highly sensitive: degrader GI50 >3 fold more potent than inhibitor
MV4;11 cells = test: Assay 3 - MV4;11 cell viability using CellTiter-Glo assay; assay type: cell-based; settings: Homo sapiens, 48 h incubation
Method: 1.3 Assay 3—MV4;11 Cell Viability Using CellTiter-Glo Assay
The anti-proliferative effects of representative compounds were measured using the CellTiter-Glo assay (Promega). MV4;11 cells were seeded into sterile, white, clear-bottomed 384-well cell-culture microplates (Greiner Bio-one), at 2× concentration in IMDM media and a volume of 25 μL. Test compounds were serially diluted (11-pt dose-response from 1 μM) in IMDM media to 2× concentration, then added to cells to make a final volume of 50 μL. Final DMSO concentration was 0.05%. After 48 h incubation, 25 μL of CellTiter-Glo reagent was added to each well. Following a 15 minutes incubation the luminescence signal was read on a CLARIOStar Plus. Data was processed and dose-response curves were generated using Prism 8 (Graphpad).
The impact on cell viability of MV4;11 cells was evaluated according to the procedure outlined in assay 3 for compounds A1, A2, A8 and A9.

tumor cell lines [2] = test: Cancer cell panel screening, GI50 by Sulforhodamine B method; assay type: cell-based; settings: up to 94 tumor cell lines, 72 h
Method: Cancer cell panel screening was provided as a service from OncoLead GmbH & Co. KG. After a lag phase of 48 h, each cell line was treated with six different concentrations (10^−10, 10^−9, 10^−8, 10^−7, 10^−6, 10^−5 M) of either A2 or I-BET726 for 72 h. Concentrations to give half-maximal growth inhibition (GI50) were determined using the Sulforhodamine B method. Log(GI50) values were plotted as single points (I-BET726, cross; A2, dot) superimposed on the bar graph and plotted along the right y axis. Log ratio of the GI50 determined for I-BET726 versus the GI50 determined for A2 were plotted for each cell line tested (bars, left y axis).
Where no specific GI50 value could be determined, a GI50 of at least 10^−5 M was assumed to calculate the inhibitor vs degrader ratio.
Similar studies have previously been carried out on CRBN PROTAC (dBET6) and VHL PROTAC (MZ1) (see, for example, Ottis et al, ACS Chem. Biol. 2019, 14, 2215-2223 under identical assay conditions).
Low sensitivity/resistant defined as degrader GI50<inhibitor.

HiBit-BRD4 = target: T1, HiBit-BRD4 (Homo sapiens, UniProt O60885); test: Assay 1 - Degradation of HiBit-BRD4 in HEK293; assay type: cell-based; settings: HiBit-BRD4 HEK293, 6 h treatment
T1 construct: HEK293 containing a HiBit insertion for BRD4; endogenous in cells; host or cells: HEK293 with HiBit insertion at BRD4
Method: 1.1 Assay 1—Degradation of HiBit-BRD4 in HEK293
HEK293 containing a HiBit insertion for BRD4 were plated in 384-well tissue culture plates at a density of 8×10^4 per well in a volume of 36 μL and incubated overnight at 37° C. and 5% CO2. Wells were treated with test compounds for 6 h prior to addition of the NanoLuc substrate and reading on a […]. Degradation data was plotted and analysed using […] (Graphpad).
The degradation of target protein BRD4 was detected according to the procedure outlined in assay 1 for the following compounds.

[3] = In vivo systemic drug exposure after oral and intravenous dosing; settings: female, mouse, plasma, C57BL/6 mice
Method: Test compound was administered to C57BL/6 mice, (6-8 weeks, 18-20 g, female, N=6, purchased from JH Laboratory Animal Co. with free access to food and water) at the indicated dose level via oral gavage (p.o., 10 mL/kg, 5% DMSO+95%(15% HP-β-CD in Water) vehicle, oral dosing leg) or tail vein (i.v., 5 mL/kg, 5% DMSO+95%(15% HP-β-CD in Water) vehicle, intravenous leg). The animal was restrained manually at designated time points up to 24 h, approximately 110 μL of blood sample was collected via facial vein into K2EDTA tubes. Blood sample was put on ice and centrifuged at 2000 g for 5 min to obtain plasma sample within 15 minutes which was analysed on an LC-MS/MS-19 (Triple Quad 5500) in positive ion ESI mode following sample prep and HPLC elution:
Mobile Phase: • Mobile Phase A: H2O—0.025% FA—1 mM NH4OAC • Mobile Phase B: MeOH—0.025% FA—1 mM NH4OAc
• Column: ACQUITY UPLC BEH C18 2.1*50 mm 1.7 um • Flow rate: 0.60 mL/min • Column temperature: 60° C.

[4] = In vivo drug exposure in the brain after systemic dosing; settings: C57BL/6 mice, intravenous 5 mg/kg dose
Method: Blood collection: The animal was restrained manually at designated time points up to 24 h, approximately 110 μL of blood sample was collected via facial vein into K2EDTA tubes. Blood sample was put on ice and centrifuged at 2000 g for 5 min (4° C.) to obtain plasma sample within 15 minutes. Brain collection: The animal was euthanized under CO2. A mid-line incision was made in the animal's scalp and skin retracted. The skull overlying the brain was removed. The whole brain was collected, rinsed with cold saline, dried on filtrate paper, weighted, snap frozen by placing into dry-ice. The sample was homogenized with 3 volumes (v/w) of PBS prior to analysis. Samples were analysed on an LC-MS/MS-19 (Triple Quad 5500) in positive ion ESI mode following sample prep and HPLC elution: Mobile Phase: • Mobile Phase A: H2O—0.025% FA—1 mM NH4OAC • Mobile Phase B: MeOH—0.025% FA—1 mM NH4OAc • Column: waters BEH C18 (2.1×50 mm, 1.7 μm) • Flow rate: 0.60 mL/min • Column temperature: 60° C.

mutant KRas (G12C) = target: T2, mutant KRas (G12C) (Homo sapiens, UniProt P01116, G12C); test: Assay 6 - Degradation of KRas-G12C by immunoblot (MIA-PaCa-2 cells); assay type: cell-based; settings: after 24 h treatment with 1000 nM
T2 construct: endogenous in cells; host or cells: MIA-PaCa-2
T2 sequence (P01116 1-188 isoform P01116-2 G12C): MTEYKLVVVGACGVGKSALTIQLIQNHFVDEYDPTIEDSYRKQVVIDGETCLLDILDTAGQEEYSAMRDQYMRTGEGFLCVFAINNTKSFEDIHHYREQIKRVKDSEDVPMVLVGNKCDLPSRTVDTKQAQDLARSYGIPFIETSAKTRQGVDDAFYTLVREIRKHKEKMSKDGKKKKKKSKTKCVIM
Method: 1.6 Assay 6—Degradation of KRas-G12C by Immunoblot.
MIA-PaCa-2 cells were seeded in 6- or 12-well plates overnight prior to 24 h treatment with test compounds at the desired concentration (DMSO final concentration 0.1%). After 24 h incubation, cells were washed with PBS and lysed with RIPA buffer (Sigma) supplemented with 1 mM MgCl2, 1 U/mL Benzonase (Sigma), and 1× cOmplete Mini EDTA-free Protease Inhibitor Cocktail (Roche). Lysates were clarified by centrifugation (15,000×g, 20 min, 4° C.) and the total protein content of the supernatant was quantified using a BCA assay. Samples were prepared using equal amounts of total protein and LDS sample buffer (Invitrogen). […] Blots were visualised using a Bio-Rad ChemiDoc MP Imaging System, and band quantification was performed using Image Studio software (LiCor). […] Degradation data was plotted and analysed using Prism (Graphpad, version 8).
The degradation of target protein mutant KRas (G12C) was detected according to the procedure outlined in […] for the compound A64.

For `Cc1sc2c(c1C)C(c1ccc(Cl)cc1)=N[C@@H](CC(=O)NCCCCCCCCNC(=O)COc1cccc3c1C(=O)N(C1CCC(=O)NC1=O)C3=O)c1nnc(C)n1-2` (stereo partly shown) [CRBN PROTAC (dBET6), dBET6], the “# tumor cell lines GI50, <1 μM” value (tumor cell lines [1]) is listed as 58%, the “# tumor cell lines Low sensitivity/Resistant” value (tumor cell lines [1]) is listed as 52% and the “# tumor cell lines Highly sensitive” value (tumor cell lines [1]) is listed as 29%.

Work on `CCCC(NC(=O)/C(C#N)=C/c1nccs1)c1ccc(OCC(=O)NCCOCCOCCOCCOCCOCCNC(=O)c2ccc(-c3ccc4c(c3)[C@H](Nc3ccc(Cl)cc3)C[C@H](C)N4C(C)=O)cc2)cc1` (stereo partly drawn) [Example A1, 4-((2S,4R)-1-acetyl-4-((4-chlorophenyl)amino)-2-methyl-1,2,3,4-tetrahydroquinolin-6-yl)-N-(1-(4-(1-((E)-2-cyano-3-(thiazol-2-yl)acrylamido)butyl)phenoxy)-2-oxo-6,9,12,15,18-pentaoxa-3-azaicosan-20-yl)benzamide] yielded an IC50 (MV4;11 cells) of 48 nM.

With `CCCC(c1ccc(OCC(=O)NCCOCCOCCOCCOCCOCCNC(=O)c2ccc(-c3ccc4c(c3)[C@H](Nc3ccc(Cl)cc3)C[C@H](C)N4C(C)=O)cc2)cc1)N(C)C(=O)/C(C#N)=C/c1nccs1` (stereo partly drawn) [Example A2, 4-((2S,4R)-1-acetyl-4-((4-chlorophenyl)amino)-2-methyl-1,2,3,4-tetrahydroquinolin-6-yl)-N-(1-(4-(1-((E)-2-cyano-N-methyl-3-(thiazol-2-yl)acrylamido)butyl)phenoxy)-2-oxo-6,9,12,15,18-pentaoxa-3-azaicosan-20-yl)benzamide] the IC50 (MV4;11 cells) was 2 nM, the “# tumor cell lines GI50, <1 μM” value (tumor cell lines [2]) was 100% and the “# tumor cell lines Highly sensitive” value (tumor cell lines [2]; highly sensitive = degrader GI50 >3 fold more potent than inhibitor) was 66%. For the same molecule, the “# tumor cell lines Low sensitivity/Resistant” value (tumor cell lines [2]; low sensitivity/resistant = degrader GI50 < inhibitor) was 15%.

In the case of `CCCC(c1ccc(OCC(=O)NCCOCCOCCOCCOCCOCCNC(=O)c2ccc(-c3ccc4c(c3)[C@H](Nc3ccc(Cl)cc3)C[C@H](C)N4C(C)=O)cc2)cc1)N(C)C(=O)/C=C/c1nccs1` (stereo partly shown) [Example A6], the DC50 (HiBit-BRD4) is reported as < 10000 nM.

For `CCCC1c2ccc(OCCN3CCC(C(=O)Nc4ncc(SCc5ncc(C(C)(C)C)o5)s4)CC3)cc2CCN1C(=O)/C(C#N)=C/c1cccc(Br)n1` (stereo not shown) [Example A37], the bioavailability ([3]; 10 mg/kg oral vs 1 mg/kg intravenous) was 7.2%, the AUC(0-inf) ([3]; intravenous 1 mg/kg dose) was 841 ng·h/mL and the AUC(0-inf) ([3]; oral 10 mg/kg dose) was 605 ng·h/mL.

In the case of `CCCC(c1ccc(CCCN2CCC(CNc3ncc(SCc4ncc(C(C)(C)C)o4)s3)CC2)cc1)N(C)C(=O)/C(C#N)=C/c1nc2ccccc2s1` (stereo not shown) [Example A39, 3-(benzo[d]thiazol-2-yl)-N-(1-(4-(3-(4-(((5-(((5-(tert-butyl)oxazol-2-yl)methyl)thio)thiazol-2-yl)amino)methyl)piperidin-1-yl)propyl)phenyl)butyl)-2-cyano-N-methylacrylamide], the “brain AUC(0-INF)” value [4] is reported as 845 ng·h/mL, the Kp ([4]; female, mouse, brain and plasma, ratio of AUC(0-INF)) is reported as 0.6 and the AUC(0-inf) ([4]; female, mouse, plasma) is reported as 1340 ng·h/mL.

For `C=CC(=O)N1CCN(c2nc(OC[C@@H]3CCCN3CCCCNC(=O)CCc3ccc(C(CCC)N(C)C(=O)/C(C#N)=C/c4nccs4)cc3)nc3c2CCN(c2cccc4cccc(Cl)c24)C3)C[C@@H]1CC#N` (stereo partly drawn) [Example A64, (E)-N-[1-[4-[3-[4-[(2S)-2-[[7-(8-chloro-1-naphthyl)-4-[(3S)-3-(cyanomethyl)-4-prop-2-enoyl-piperazin-1-yl]-6,8-dihydro-5H-pyrido[3,4-d]pyrimidin-2-yl]oxymethyl]pyrrolidin-1-yl]butylamino]-3-oxo-propyl]phenyl]butyl]-2-cyano-N-methyl-3-thiazol-2-yl-prop-2-enamide], the “residual KRas (G12C) abundance” value (mutant KRas (G12C)) was “less than 50%”.

For `Cc1ncsc1-c1ccc(CNC(=O)[C@@H]2C[C@@H](O)CN2C(=O)[C@@H](NC(=O)COCCOCCOCCNC(=O)C[C@@H]2N=C(c3ccc(Cl)cc3)c3c(sc(C)c3C)-n3c(C)nnc32)C(C)(C)C)cc1` [VHL PROTAC (MZ1), MZ1], the “# tumor cell lines GI50, <1 μM” value (tumor cell lines [1]) is listed as 83%, the “# tumor cell lines Low sensitivity/Resistant” value (tumor cell lines [1]) is listed as 26% and the “# tumor cell lines Highly sensitive” value (tumor cell lines [1]) is listed as 47%.
